{"source": "patent US20020137154A1", "about": "“Methods for improving cell growth and alcohol production during fermentation” (priority 2000, published 2002)", "tested_on": "Klebsiella oxytoca P2", "test": "Batch fermentation of Klebsiella oxytoca P2 in 1% CSL medium and xylose with acetaldehyde: ethanol production and cell growth", "assay_type": "cell-based", "conditions": "for Ethanol Production Maximum / Ethanol Production Maximum % Control / Ethanol yield / Initial Growth (OD @ 24 h) % Control / Initial Growth (OD @ 24 h) OD / Maximum Cell Density % Control / Maximum Cell Density OD / Maximum Cell Density Time / Time to completion / Volumetric Productivity % Control (based on Avg) / Volumetric Productivity % Control (based on Max) / Volumetric Productivity Average / Volumetric Productivity Maximum: K. oxytoca P2, 1% CSL+xylose", "method": "Two types of media were tested: 1% CSL and Luria broth (LB). Each contained 97 g of either xylose or glucose per liter. Luria Broth consists of, per liter: 10 g Difco® Tryptone, 5 g Difco® Yeast Extract and 5 g NaCl. The 1% CSL medium consists of Corn Steep Liquor (1% w/v) plus mineral salts (mineral salts per liter: 1 g of KH2PO4. 0.5 g of K2HPO4, 3.1 g of (NH4)2SO4, 0.4 g of MgCl2·6H2), and 20 mg FeCl3·6H2O).\nLuria Broth was prepared by autoclaving a 2× nutrient stock containing, per liter: 20 g Difco® Tryptone, 10 g Difo® Yeast Extract, and 10 g NaCl. Sugars (xylose or glucose) were autoclaved separately. A 1% CSL medium was prepared as follows: Commercial Corn Steep Liquor (CSL; 50% dry weight/50% water) was diluted with tap water to make a 20X stock containing 100 g dry weight of Corn Steep Liquor/L and was adjusted to pH 7.2 with NaOH (50%). After sterilization by autoclaving, the 20X CSL stock was clarified by centrifugation at 5000×g for 10 minutes. Magnesium was added as a 100× stock solution (40 g/L MgCl2·6H2O). Iron was added as a 1000× stock solution made by dissolving 20 g FeCl3·6H2O in 175 mL of HCl and adjusting to 1 L with sterile water. Nitrogen, sulfur and phosphorus were added using a 20× stock solution containing the following (per liter): 20 g of KH2PO4, 10 g of K2HPO4 and 62 g of (NH4)2SO4. Stock solutions containing minerals were sterilized separately by autoclaving. Final media was prepared by adding 750 mL of water to 1 L bottle containing 100 g of xylose or glucose. This solution was autoclaved, and stock solutions were added to provide a 1× concentration, and the final volume adjusted to 1 L. This broth was further diluted by the addition of supplements (acetaldehyde stock or distilled water) during fermentation with a resulting sugar content of 97 g/L.\nInocula were grown in same media used for fermentation and were prepared as follows. Three colonies from a fresh plate were used to inoculate seed cultures: 250-mL flask containing 100 mL medium. These cultures were grown with agitation (120 rpm) for 12-16 hours at 35° C. to a final OD550nm of approximately 2.0-2.5. Cells were harvested by centrifugation at 5000×g for 5 minutes, and resuspended in fresh media to an OD550nm of 0.1. The resulting suspension was distributed into 500-mL beakers containing 345 ml each of fermentation medium. Acetaldehyde was added as indicated. Batch fermentations (35° C., 100 rpm) were maintained at pH 6.5 by the automatic addition of 2N KOH. Cell mass, ethanol, and base addition (2N KOH) were recorded during 96 hours of incubation.\nCell mass was estimated by measuring OD550nm using Baush & Lomb® Spectronic 70 spectrophotometer. […] Ethanol was measured by gas chromatography using a Varian® 3400 CX gas chromatograph with 1-propanol as an internal standard.\nThis example describes the effect of the addition of acetaldehyde to 1% CSL and xylose medium, which has been inoculated with ethanologenic, cells, i.e., Klebsiella oxytoca P2.\nMaximum ethanol production is shown in grams/liter (g/L). The ethanol yield is shown in grams of ethanol/grams of added sugar. Maximum volumetric productivity is shown in grams of ethanol/(liter)(hour). The average productivity is calculated form the start of fermentation to the completion of fermentation in grams ethanol/(liter)(hour).\nAcetaldehyde was added to the fermentation medium at five different concentrations and time points. Where only one acetaldehyde value is provided, this amount of acetaldehyde was added at the start of fermentation only (i.e., 0.25 g/L acetaldehyde or 0.5 g/L). Where two or three additions are indicated, the first volume was added at the start of fermentation and additional doses of the nutrient compound were added after 8 hours of fermentation or at 8-hour intervals.", "key": {"[1]": {"conditions": "2 × 0.25 g/L (start, after 8 hours)"}, "[2]": {"conditions": "3 × 0.25 g/L (start, then 8-hour intervals)"}, "[3]": {"conditions": "K. oxytoca P2, CSL and xylose, 0.5 g/L at the start"}}, "data": [{"compound": "CC=O", "note": "[Acetaldehyde, acetaldehyde]", "values": [{"measurement": "Ethanol Production Maximum", "setting": "0.25 g/L at start", "value": 25.43, "unit": "g/L"}, {"measurement": "Ethanol Production Maximum % Control", "setting": "0.25 g/L at start", "value": 107.35, "unit": "%"}, {"measurement": "Ethanol yield", "setting": "0.25 g/L at start", "value": "0.262 grams of ethanol/grams of added sugar"}, {"measurement": "Initial Growth (OD @ 24 h) % Control", "setting": "0.25 g/L at start", "value": 93.90, "unit": "%"}, {"measurement": "Initial Growth (OD @ 24 h) OD", "setting": "0.25 g/L at start", "value": 3.54, "unit": "OD"}, {"measurement": "Maximum Cell Density % Control", "setting": "0.25 g/L at start", "value": 111.96, "unit": "%"}, {"measurement": "Maximum Cell Density OD", "setting": "0.25 g/L at start", "value": 5.68, "unit": "OD"}, {"measurement": "Maximum Cell Density Time", "setting": "0.25 g/L at start", "value": 72.00, "unit": "h"}, {"measurement": "Time to completion", "setting": "0.25 g/L at start", "value": ">96", "unit": "h"}, {"measurement": "Volumetric Productivity % Control (based on Avg)", "setting": "0.25 g/L at start", "value": 107.35, "unit": "%"}, {"measurement": "Volumetric Productivity % Control (based on Max)", "setting": "0.25 g/L at start", "value": 135.46, "unit": "%"}, {"measurement": "Volumetric Productivity Average", "setting": "0.25 g/L at start", "value": "0.265 grams ethanol/(liter)(hour)"}, {"measurement": "Volumetric Productivity Maximum", "setting": "0.25 g/L at start", "value": "0.47 grams of ethanol/(liter)(hour)"}, {"measurement": "Ethanol Production Maximum", "setting": "0.5 g/L at start", "value": 26.53, "unit": "g/L"}, {"measurement": "Ethanol Production Maximum % Control", "setting": "0.5 g/L at start", "value": 111.98, "unit": "%"}, {"measurement": "Ethanol yield", "setting": "0.5 g/L at start", "value": "0.273 grams of ethanol/grams of added sugar"}, {"measurement": "Initial Growth (OD @ 24 h) % Control", "setting": "0.5 g/L at start", "value": 69.39, "unit": "%"}, {"measurement": "Initial Growth (OD @ 24 h) OD", "setting": "0.5 g/L at start", "value": 2.61, "unit": "OD"}, {"measurement": "Maximum Cell Density % Control", "setting": "0.5 g/L at start", "value": 116.26, "unit": "%"}, {"measurement": "Maximum Cell Density OD", "setting": "0.5 g/L at start", "value": 5.89, "unit": "OD"}, {"measurement": "Maximum Cell Density Time", "setting": "0.5 g/L at start", "value": 96.00, "unit": "h"}, {"measurement": "Time to completion", "setting": "0.5 g/L at start", "value": ">96", "unit": "h"}, {"measurement": "Volumetric Productivity % Control (based on Avg)", "setting": "0.5 g/L at start", "value": 111.98, "unit": "%"}, {"measurement": "Volumetric Productivity % Control (based on Max)", "setting": "0.5 g/L at start", "value": 147.11, "unit": "%"}, {"measurement": "Volumetric Productivity Average", "setting": "0.5 g/L at start", "value": "0.276 grams ethanol/(liter)(hour)"}, {"measurement": "Volumetric Productivity Maximum", "setting": "0.5 g/L at start", "value": "0.51 grams of ethanol/(liter)(hour)"}, {"measurement": "Ethanol Production Maximum", "setting": "[1]", "value": 25.56, "unit": "g/L"}, {"measurement": "Ethanol Production Maximum % Control", "setting": "[1]", "value": 107.88, "unit": "%"}, {"measurement": "Ethanol yield", "setting": "[1]", "value": "0.263 grams of ethanol/grams of added sugar"}, {"measurement": "Initial Growth (OD @ 24 h) % Control", "setting": "[1]", "value": 88.59, "unit": "%"}, {"measurement": "Initial Growth (OD @ 24 h) OD", "setting": "[1]", "value": 3.34, "unit": "OD"}, {"measurement": "Maximum Cell Density % Control", "setting": "[1]", "value": 104.50, "unit": "%"}, {"measurement": "Maximum Cell Density OD", "setting": "[1]", "value": 5.30, "unit": "OD"}, {"measurement": "Maximum Cell Density Time", "setting": "[1]", "value": 96.00, "unit": "h"}, {"measurement": "Time to completion", "setting": "[1]", "value": ">96", "unit": "h"}, {"measurement": "Volumetric Productivity % Control (based on Avg)", "setting": "[1]", "value": 107.88, "unit": "%"}, {"measurement": "Volumetric Productivity % Control (based on Max)", "setting": "[1]", "value": 126.68, "unit": "%"}, {"measurement": "Volumetric Productivity Average", "setting": "[1]", "value": "0.266 grams ethanol/(liter)(hour)"}, {"measurement": "Volumetric Productivity Maximum", "setting": "[1]", "value": "0.44 grams of ethanol/(liter)(hour)"}, {"measurement": "Ethanol Production Maximum", "setting": "[2]", "value": 26.14, "unit": "g/L"}, {"measurement": "Ethanol Production Maximum % Control", "setting": "[2]", "value": 110.32, "unit": "%"}, {"measurement": "Ethanol yield", "setting": "[2]", "value": "0.269 grams of ethanol/grams of added sugar"}, {"measurement": "Initial Growth (OD @ 24 h) % Control", "setting": "[2]", "value": 95.66, "unit": "%"}, {"measurement": "Initial Growth (OD @ 24 h) OD", "setting": "[2]", "value": 3.60, "unit": "OD"}, {"measurement": "Maximum Cell Density % Control", "setting": "[2]", "value": 106.51, "unit": "%"}, {"measurement": "Maximum Cell Density OD", "setting": "[2]", "value": 5.40, "unit": "OD"}, {"measurement": "Maximum Cell Density Time", "setting": "[2]", "value": 72.00, "unit": "h"}, {"measurement": "Time to completion", "setting": "[2]", "value": ">96", "unit": "h"}, {"measurement": "Volumetric Productivity % Control (based on Avg)", "setting": "[2]", "value": 110.32, "unit": "%"}, {"measurement": "Volumetric Productivity % Control (based on Max)", "setting": "[2]", "value": 135.55, "unit": "%"}, {"measurement": "Volumetric Productivity Average", "setting": "[2]", "value": "0.272 grams ethanol/(liter)(hour)"}, {"measurement": "Volumetric Productivity Maximum", "setting": "[2]", "value": "0.47 grams of ethanol/(liter)(hour)"}, {"measurement": "ethanol production as compared to the control", "setting": "[3]", "value": "highest amount of ethanol production"}, {"measurement": "initial growth and maximum cell density as compared to the control", "setting": "[3]", "value": "increased initial growth and maximum cell density"}]}]}
